For series [1], the system named is detached mammary epithelial cells. Put plainly: Protrusions of detached mammary epithelial cells, general statements. Type of series: cell-based, human and mouse. As for the experimental part: Time-lapse video microscopy of detached mammary epithelial cells detected the extension of long, dynamic protrusions of the plasma membrane, and the present inventors have characterized the cytoskeletal mechanism underlying this novel observation. […] This response may be relatively short-lived, in specific embodiments, since mammary epithelial cells die by apoptosis within about 24 hours in suspension. However, cell lines that resist apoptosis through expression of either Bcl-2 or Bcl-xL will persistently form protrusions. Previous studies by the inventors indicate that such apoptotically-resistant cell lines will not form tumors in mice and lie dormant in distant tissues, in specific embodiments of the invention. […] These microtubule processes can extend more than 3 times the cell diameter, and undergo a rapid probing motion more than once per second. Formation of these microtubule protrusions is necessary for efficient cell-cell and cell-substratum attachment. In particular embodiments of the invention, this inherent microtubule response in detached mammary epithelial cells provides at least some of the invasive characteristics of breast cancer, independent of any tumor-specific genetic alteration, for example.
Breast tumor cells enter the bloodstream long before the development of clinically evident metastasis. However, the early presence of such bloodborne cells predicts poor patient outcome. Nearly 90% of human breast tumors arise as carcinomas from mammary epithelial cells, so it is important to characterize how these cells respond to the detached conditions that they would experience in the bloodstream. In the present invention, mammary epithelial cell lines produce long and dynamic protrusions of the plasma membrane when detached. Although human and mouse mammary epithelial cell lines die by apoptosis within 16 hours of detachment, this protrusive response persists for days in cells overexpressing either Bcl-2 or Bcl-xL, for example. […] Since bloodborne metastasis depends on both cell-cell and cell-matrix attachment, microtubule-based protrusions in detached mammary epithelial cells provide a novel target that could influence the metastatic spread of breast tumors.
Detachment-induced increases in Glu-tubulin could promote plasma membrane protrusions of microtubules by preventing efficient capture at the actin cortex. […] Therefore, our current model is that detachment increases stabilized microtubules enriched in Glu-tubulin, while decreased actin polymerization simply promotes extension of these microtubule protrusions.

Series [2] relates to EpH4 cells. Put plainly: Protrusions in suspended cells treated with cytoskeletal inhibitors (EpH4). Type of series: cell-based, mouse. The conditions noted are these: EpH4, 15 minutes of suspension; Latrunculin-A 5 μM, Colchicine 1 μM. As for the experimental part: (§1) In FIG. 2A, after 15 minutes of suspension, protrusions in EpH4 and MCF10A cells are quite small (Control, white arrows). […] In FIG. 2B, populations of live, suspended cells were scored blindly for two or more protrusions longer than the cell radius. Each bar represents the mean+S.D. for three experiments in which at least 100 single cells were counted.
EpH4 cells were suspended in either DMEM (Control) or media containing 5 μM Latrunculin-A (LA), 1 μM Colchicine or the combination of both drugs for 30 minutes. Cells were then spun onto glass coverslips and fluorescently stained for α-tubulin (green) and polymerized actin (red). Protrusions that are difficult to see by phase contrast are easily discernible with immunostaining for α-tubulin (white arrows). Protrusions contain little polymerized actin, except at points of concentration, which are often at the end (arrowhead).
EpH4 and B19 cells were suspended over 2% agarose coated plates to prevent attachment in either serum-free DMEM or media containing. Latrunculin-A (5 μM) to enhance protrusions. For co-staining of α-tubulin and actin, suspended cells were then centrifuged onto poly-L-lysine coated coverslips (280 g×5 min), fixed in 3.7% formaldehyde in PBS for 10 min, and permeablized with 0.1% Triton X-100 in PBS. Adhered cells were then stained for 1 hr at room temperature using FITC-conjugated anti-α-tubulin (1:200; Sigma), Alexa-594 phalloidin (1:100; Molecular Probes), and Hoescht 33342 (1:5000; Sigma).
(§2) In order to initially characterize the cytoskeletal mechanism underlying these protrusions, suspended cells were treated with inhibitors of actin and tubulin polymerization (FIG. 2). After 15 minutes of suspension, the protrusions in untreated EpH4 or MCF10A cells remain fairly short (FIG. 2, white arrows). These early protrusions can often be difficult to detect with phase-contrast microscopy, due to interfering light refraction from the plasma membrane. […] Protrusions were more easily visible with immunofluorescence than phase contrast microscopy (FIG. 3, white arrows). Although actin filament staining was generally low along the length of the protrusion, dense points of actin were often found at the end of protrusions (FIG. 3, arrowheads).

Series [3] relates to MCF10A cells. Put plainly: Protrusions in suspended cells treated with cytoskeletal inhibitors (MCF10A). Type of series: cell-based, human. The note with it: MCF10A, 15 minutes of suspension; Latrunculin-A 5 μM, Colchicine 1 μM. As for the experimental part:
as §1, §2
The nontumorigenic human mammary epithelial cell line (MCF10A) or the indicated human breast tumor cell lines were grown in suspension for 30-60 minutes, and protrusions were counted in random fields with phase-contrast microscopy. Values represent the mean±S.D. of three experiments in which at least 100 cells were counted. […] This effect was most apparent in the highly metastatic but exemplary Bt-474 and MDA-MB-231 cells (pictured, black arrows). The exemplary MCF10A cells show far fewer and shorter protrusions at the same time point (pictured, white arrows). Such protrusions are not observed in attached cells.

Series [4] has as its system chicken erythrocytes from day 2 embryos. The conditions noted are these: cited from earlier work.
The test system of series [5] is Bt-474. Put plainly: GFP-membrane protrusion counts after local anesthetics (Bt-474). Type of series: cell-based, human. The conditions noted are these: Bt-474, GFP-membrane; Lidocaine 50 mM, Tetracaine 2.5 mM; with or without LA. As for the experimental part: (§3) Cells were then suspended in DMEM culture media with or without […] Latrunculin-A (LA) to induce protrusions by depolymerizing actin. […] Bars represent mean+S.D. of at least three blindly counted experiments.

Series [6] concerns MDA-231. Briefly: GFP-membrane protrusion counts after local anesthetics (MDA-231). Type of series: cell-based, human. The conditions noted are these: MDA-231, GFP-membrane; Lidocaine 50 mM, Tetracaine 2.5 mM; with or without LA. As for the experimental part:
as §3

The test system of series [7] is metastasis. The conditions noted are these: known, via unclear mechanism; cited from earlier work.
The test system of series [8] is MCF10A cells. Briefly: Chemical inhibition of Latrunculin-A-enhanced microtubule protrusions in suspended cells. Type of series: cell-based, human. As for the experimental part: MCF10A cells were placed into suspension in the presence of the indicated chemical inhibitors targeted at specific signaling pathways or the corresponding vehicle controls. Cells were then treated with the actin polymerization inhibitor, Latrunculin-A (LA, 5 μM) for one hour to enhance protrusions. […] Thus, protrusions can be reduced by chemical inhibition of specific signaling proteins.

Series [9] relates to cells. The series is classed as cell-based. The conditions noted are these: indicated concentrations, 2 hours.
For series [10], the system named is MCF10A cells. The conditions noted are these: MCF10A treated two hours.

Entries after “also recorded” stand apart in the source; their conditions may differ.

Consider `C=C1[C@@H](C)[C@H]2[C@H](Cc3ccccc3)NC(=O)[C@]23[C@H](OC(C)=O)/C=C/[C@@](C)(O)C(=O)[C@@H](C)C/C=C/[C@H]3[C@@H]1O` [Cytochalasin-D], for which the results for the protrusions result in series [1], in series [2] and in series [3] were “enhanced; also recorded: promotes the extension of microtubule protrusions”, “increased protrusions” and “increased protrusions”, respectively. Besides, in [4], the microtubule processes result is given as “promotes microtubule processes”.

Turning to `CCN(CC)CC(=O)Nc1c(C)cccc1C` [Lidocaine], the protrusions result in series [5] and in series [6] was “inhibited significantly” each time. For the same compound, in [7], the metastasis result is “reduce metastasis”.

As to `Cn1sc(=O)n(Cc2ccccc2)c1=O` [TDZD-8], in [8] (MCF10A in suspension, then LA 5 μM one hour, sodium orthovanadate 1 mM, S-Trityl-L-Cysteine 100 μM, TDZD-8 20 μM), the protrusions result is “strongest inhibition of protrusions”. In addition, in series [8] (one hour of treatment), the protrusion frequency entry is listed as “reduce protrusion frequency significantly”. Also, the cell viability entry in series [9] is reported as “did not reduce cell viability significantly”.

With `CCCCNc1ccc(C(=O)OCCN(C)C)cc1` [Tetracaine], the protrusions entry in [5] and in series [6] was “inhibited significantly” each time. The “concentration showing significant cell toxicity” value in [10] is not below 3000 µM. Further, in series [10] (Lidocaine up to 50 mM), the cell toxicity entry is recorded as “cytotoxic”. Further, in [7], the metastasis entry is given as “reduce metastasis”.
